Results published in patent publication US20090088376A1, “DENDRIMER BASED COMPOSITIONS AND METHODS OF USING THE SAME” (priority 2007, published 2009).

Columns and labels:
KB cells = test: Inhibition of cell growth (XTT assay / total cell protein); type: cell-based, human
Experimental: Cell culture and treatment.
Evaluation of dendrimer cytotoxicity. Cell growth was determined by assay of the total protein in lysates of treated cells using a bicinchoninic acid reagent (PIERCE, and by XTT assay, using a kit from Roche.
Because the binding of the conjugate to KB cells reaches maximal uptake within 1 h (Quintana et al, 2002. Pharmaceutical Research 19: 1310-1316.), the effect of the G5-FI-FA-MTX on cell growth was initially tested by pre-incubation of cells with the conjugate for 1 h, followed by incubation in a drug-free medium for 5 d. […] When the cells were pre-incubated with dendrimers for 4 h, there was a modest decrease of about 10% in cell growth as determined by XTT assay. The cytotoxicity measurements were therefore done by incubation with the dendrimer for a minimum of 24 h, a pre-incubation time period shown to induce significant cytotoxicity.
Time course and dose dependent inhibition of cell growth. Previous studies have shown that MTX-induced cytotoxicity is detectable in vitro only if the medium is completely deprived of FA (See, e.g., Sobrero & Bertino, Int. J. Cell Cloning 4, 51 (1986)). The effect of the trifunctional dendrimers on cell growth was tested in cells incubated in a FA-deficient medium. Cells were treated with 300 nM conjugates (equivalent of 1500 nM MTX) or 1500 nM free MTX for 1-4 days, and cell proliferation was determined by estimation of cellular protein content. Cells were treated for 2 days with different concentrations of the conjugates or free MTX (the conjugate concentration is given as MTX equivalents, with 5 MTX per dendrimer molecule). KB cells which express high and low FAR were incubated with 30 nM of the dendrimers for 1 hr at 37° C., rinsed, and the fluorescence of cells was determined by flow cytometric analysis (See. e.g., FIG. 21, left panel). Pre-incubation with 50 µM free FA for 30 min totally prevents cellular binding and uptake of the polymer conjugates (See. e.g., FIG. 21, left panel).
The inhibition of cell growth induced by the conjugates was also tested by XTT assay which is based on the conversion of XTT to formazan by the active mitochondria of live cells (See, e.g., Roehm et al, J Immunol Methods 142, 257 (1991)).

[1] = Toxicity of dendrimer conjugates and free methotrexate (body weight, histopathology)
Experimental: (§1) Twice weekly, SCID mice with s.c. KB xenografts, starting on day 4 after tumor implantation, received via the tail vein an injection of either targeted or nontargeted conjugate containing methotrexate, a conjugate without methotrexate, free methotrexate, or saline as a control. The compounds were delivered in a 0.2 mL volume of saline per 20 g of mouse. The single dose of methotrexate delivered each time equaled 0.33 mg/kg. The higher doses of 1.67 and 3.33 mg/kg free methotrexate were also tested. The conjugates were delivered at equimolar concentration of methotrexate calculated based on the number of methotrexate molecules present in a nanoparticle. The conjugate without methotrexate was delivered at equimolar concentration of dendrimer. In the initial trial, six groups of mice with five mice in each group received up to 15 injections. In the follow-up trial, mice received up to 28 injections dependent on their survival. The body weights of the mice were monitored throughout the experiment as an indication of adverse effects of the drug. Histopathology of multiple organs was done at the termination of each trial and each time mouse had to be euthanized due to toxic effects or tumor burden. Tissues from lung, heart, liver, pancreas, spleen, kidney, and tumor were analyzed.
(§2) At each time point, a gross examination and histopathology of the liver, spleen, kidney, lung, and heart were done.

SCC15 cells = test: XTT cell proliferation assay; type: cell-based, human; conditions: methotrexate 100 nM, G5-FI-EGF 100 nM, 3 days
Experimental: XTT assay. For cytotoxicity experiments, cells (2500 cells/well) were seeded in 96-well microtiter plates in DMEM containing 10% FCS. The cells were treated either with 100 nM each of the conjugates for 72 h. A calorimetric XTT assay, Roche Molecular Biochemicals (Indianapolis, Ind.) was performed following the vendor's protocol. After incubation with an XTT labeling mixture, microtiter plates were read on an ELISA reader (SYNERGY HT, BIOTEK) at 492 nm with the reference wavelength at 690 nm. Vehicle-treated cells were assigned a value of 100%.

s.c. human KB xenografts = test: Targeted drug delivery: tumor growth and survival; type: in vivo, SCID mice; conditions: for effect on tumor growth: first trial
Experimental: Tumor cell line. The KB human cell line, which overexpresses the folate receptor (See, e.g., Turek et al, J Cell Sci 106, 423 (1993)), was purchased from the American Type Tissue Collection (Manassas, Va.) and maintained in vitro at 37° C., 5% CO2 in folate-deficient RPMI 1640 supplemented with penicillin (100 units/mL), streptomycin (100 μg/mL), and 10% heat-inactivated fetal bovine serum. Before injection in the mice, the cells were harvested with trypsin-EDTA solution, washed, and resuspended in PBS. The cell suspension (5×10^6 cells in 0.2 mL) was injected s.c. into one flank of each mouse using a 30-gauge needle. In the biodistribution studies, the tumors were allowed to grow for 2 weeks until reaching ˜0.9 cm^3 in volume. The formula chosen to compute tumor volume was for a standard volume of an ellipsoid, where V=4/3π(½ length×½ width×½ depth). With an assumption that width equals depth and […], the formula used was V=½×length×width^2. Targeted drug delivery using conjugate injections was started on the fourth day after implantation of the KB cells.
Delivery of targeted nanoparticle therapeutic.
Statistical methods. Means, SD, and SE of the data were calculated. Differences between the experimental groups and the control groups were tested using Student's-Newman-Keuls' test and Ps<0.05 were considered significant.
Targeted drug delivery to tumor cells through the folate receptor. The efficacy of different doses of conjugates was tested on SCID CB-17 mice bearing s.c. human KB xenografts and was compared with equivalent and higher doses of free methotrexate. Mice were maintained on the folic acid-deficient diet for 3 weeks before injection of the KB tumor cells to achieve circulating levels of folic acid that approach those in human serum and to prevent down-regulation of folate receptors on tumor xenografts (See, Mathias et al., J Nucl Med 29, 1579 (1998)). Six groups of SCID mice with five mice in each group were injected s.c. on one flank with 5×10^6 KB cells in 0.2 mL PBS suspension. The highest total dose of G5-FI-FA-MTX therapeutic used equals 55.0 mg/kg and is equivalent to a 5.0 mg/kg total cumulative dose of free methotrexate (FIG. 29). The therapeutic dose of the conjugate was compared with three cumulative doses of free methotrexate equivalent to 33.3, 21.7, and 5.0 mg/kg accumulated in 10 to 15 injections based on mouse survival. Saline and the conjugate without methotrexate (G5-FT-FA) were used as controls.

[2] = mouse, in vivo
Experimental: as §1, §2

Structure (SMILES)	reversal by free FA of growth-arrest caused by MTX (KB cells; 150 nM FA, 150 nM MTX, 24 h then 6 d fresh medium, total cell protein)	increase of cell growth above control cells by excess free FA (KB cells; 50 μM FA with MTX or G5-FITC-FA-MTX 24 h, then 5 days, XTT) [%]	day of trial by which doses became lethal ([1]; cumulative doses 33.3 and 21.7 mg/kg) [days]	toxicity ([1]; total accumulated dose equivalent to 5.0 mg/kg free methotrexate)	inhibition of cell growth in G5-FI-EGF-treated cells (SCC15 cells)	effect on tumor growth (s.c. human KB xenografts; cumulative 33.3 and 21.7 mg/kg)	effect on tumor growth (s.c. human KB xenografts; dose equivalent to 5.0 mg/kg cumulative methotrexate (or equimolar dendrimer))	day of trial by which all mice died (s.c. human KB xenografts; second 99-day trial) [days]	survivors at the termination of the trial (s.c. human KB xenografts; second 99-day trial)	inhibition of cell growth (KB cells; XTT assay, 1, 2 or 3 days)	growth inhibition of free MTX compared with conjugate (KB cells; equimolar MTX, below 1 μM)	histopathology of the liver [2]
Nc1nc2ncc(CNc3ccc(C(=O)N[C@@H](CCC(=O)O)C(=O)O)cc3)nc2c(=O)[nH]1 [FA, folic acid]	almost completely reversed	20										
CN(Cc1cnc2nc(N)nc(N)c2n1)c1ccc(C(=O)N[C@@H](CCC(=O)O)C(=O)O)cc1 [MTX, methotrexate]			32 to 36	nor free methotrexate at the same dose were toxic	inhibited cell growth in the G5-FI-EGF-treated cells to a greater extent than its inhibition of control cells	affecting tumor growth	no effect on tumor growth	≤ 66	no mice surviving	time-dependent cytotoxicity	higher than with the equimolar concentrations of MTX in the G5-FITC-FA-MTX	advanced liver lesions, collections of inflammatory cells, and periportal inflammation
